Legend:
[1] = system: spontaneous activities of mice; assay: Effects on spontaneous activities of mice; settings: Mean ± SD, n=10
Protocol: Mice weighing 18-22 g, half male and half female, were placed in the laboratory 24 hours before the test to adapt to the environment. The room temperature was controlled at 24±2° C. Animals were fasted for 8 hours before testing, and then placed in a transparent cage. The number of spontaneous activities of mice was counted by an automatic device (model XZ-4 by Drug Research Institute of China Academy of Medical Sciences). Mice were pre-screened by counting their spontaneous activities for five minutes and unqualified mice were excluded. A total of 110 mice were selected and divided into 11 groups with 10 mice in each group.
Chlorpromazine (3 mg/kg) was used as the positive control. The dose volume was 0.2 mL/10 gram and infusion rate was 0.2 mL/10 seconds.

[2] = Phase I clinical trials, intravenous, adverse events; type: in vivo; settings: human phase I, 1.0 g, I.V., qd × 1d
Protocol: The clinical trials were conducted to test if the toxicities observed in animal models would correlate with the adverse effects in humans. Double-blinded, randomized controlled human phase I and phase II clinical trials were carried out to compare L-ornidazole with racemate in both intravenous (I.V.) and oral formulations. L-ornidazole caused remarkably less adverse events (related to nervous system) than the racemate in both I.V. and oral routes. Such adverse drug events may cause non-compliance in patients being treated, which could be dangerous for life-threatening infections.

[3] = system: thiopental-induced hypnosis; assay: Effects on thiopental-induced hypnosis; settings: mice, 30 min before sodium thiopental 40 mg/kg IP, Mean ± SD, n=10
Protocol: A total of 70 mice were divided into 7 groups with 10 mice in each group (half male and half female), and animals were fasted for 8 hours before study. Vehicle control and ornidazole enantiomers were injected intraperitoneal (IP), after 30 minutes, sodium thiopental was then given IP: at 40 mg/kg.
Levo-, dextro-ornidazole and racemate are studied and compared in 6 treatment groups at 2 different dose levels of 40 and 80 mg/kg. The dose volume is 0.2 mL/10 gram and infusion rate is 0.2 mL/10 seconds.

Cc1ncc([N+](=O)[O-])n1CC(O)CCl (racemic) [Racemic ornidazole, 1-(3-Chloro-2-hydroxypropyl)-2-methyl-5-nitroimidazole]
Spontaneous Activities (per 5 min) ([1]; 40 mg/kg i.v., 0.5 h post-dose): 79 ± 26 per 5 min
Spontaneous Activities (per 5 min) ([1]; 40 mg/kg i.v., 1 h post-dose): 56 ± 37 per 5 min
Spontaneous Activities (per 5 min) ([1]; 40 mg/kg i.v., 2 h post-dose): 63 ± 23 per 5 min
Spontaneous Activities (per 5 min) ([1]; 40 mg/kg i.v., 3 h post-dose): 62 ± 24 per 5 min
Spontaneous Activities (per 5 min) ([1]; 40 mg/kg i.v., 4 h post-dose): 72 ± 35 per 5 min
Spontaneous Activities (per 5 min) ([1]; 80 mg/kg i.v., 0.5 h post-dose): 48 ± 35 per 5 min
Spontaneous Activities (per 5 min) ([1]; 80 mg/kg i.v., 1 h post-dose): 26 ± 19 per 5 min
Spontaneous Activities (per 5 min) ([1]; 80 mg/kg i.v., 2 h post-dose): 32 ± 21 per 5 min
Spontaneous Activities (per 5 min) ([1]; 80 mg/kg i.v., 3 h post-dose): 55 ± 27 per 5 min
Spontaneous Activities (per 5 min) ([1]; 80 mg/kg i.v., 4 h post-dose): 61 ± 20 per 5 min
Spontaneous Activities (per 5 min) ([1]; 160 mg/kg i.v., 0.5 h post-dose): 29 ± 17 per 5 min
Spontaneous Activities (per 5 min) ([1]; 160 mg/kg i.v., 1 h post-dose): 22 ± 14 per 5 min
Spontaneous Activities (per 5 min) ([1]; 160 mg/kg i.v., 2 h post-dose): 21 ± 12 per 5 min
Spontaneous Activities (per 5 min) ([1]; 160 mg/kg i.v., 3 h post-dose): 30 ± 13 per 5 min
Spontaneous Activities (per 5 min) ([1]; 160 mg/kg i.v., 4 h post-dose): 51 ± 23 per 5 min
# of Patients Reporting Adverse Events/Total Patients [2]: 5/10
Sleeping Time ([3]; 40 mg/kg IP): 74.0 ± 51.3 min
Time to Lose Righting Reflex ([3]; 40 mg/kg IP): 2.1 ± 0.3 min
Sleeping Time ([3]; 80 mg/kg IP): 106.6 ± 99.2 min
Time to Lose Righting Reflex ([3]; 80 mg/kg IP): 1.9 ± 0.4 min

Reference: patent US20130202698A1 (NANJING SANHOME PHARMACEUTICAL CO., LTD., priority 2005, published 2013)
